Data on five molecules can be found in patent publication US7251525B2, “Treatment of arrhythmias via inhibition of a multifunctional calcium/calmodulin-dependent protein kinase” (The Board of Trustees of the Leland Stanford Jr. University, priority 1997, dated 2007).

In experiment [1] the test system is isolated rabbit ventricular myocytes. Briefly: EAD induction in isolated rabbit ventricular myocytes in current clamp with low extracellular potassium. Type of experiment: cell-based. The note with it: cells dialyzed with peptide; for EADs induced (cells with EADs/cells): 1.0 mM extracellular potassium. As to the method:
Action potentials were induced in isolated rabbit ventricular myocytes studied in current clamp with low (1.0 mM) extracellular potassium to favor EAD induction.
Action potential recording was performed in the following bath solution (mmol/L): NaCl 140.0, Glucose 10.0, HEPES 5.0, KCl 5.4, CaCl2 2.5, MgCl2 1.0; pH was adjusted to 7.4 with 10 N NaOH. The intracellular pipette solution for action potential recording contained (mmol/L): K aspartate 120.0, HEPES 10.0, EGTA 10.0, Na2ATP 5.0, MgCl2 4.0, CaCl2 3.0; pH was adjusted to 7.2 with 1N KOH. Unless otherwise noted, all chemicals were from Sigma.
Cells were stimulated at 0.1 Hz in whole cell configuration in current clamp mode with 0.1 to 1.0 nA pulses of depolarizing current (1.25×threshold) for 2-3 ms at room temperature (20°-23° C.). Action potentials were low pass filtered at 2 KHz and sampled at 2.5 KHz with a 12-bit analog to digital converter (Digidata 1200 B, Axon Instruments). A long action potential waveform was digitized and stored for application as a voltage command using pClamp 6.03.

The target in another experiment is protein kinase C (PKC). Conditions: cited from earlier work.
For another experiment, the target named is protein kinase A (PKA). Conditions: cited from earlier work.
The next experiment relates to isolated heart cells. Briefly: Pacing-induced inward current (DAD-linked) in isolated heart cells, action potential voltage clamp. The note with it: 0.5 Hz; for cells that developed inward currents: peptide 20 μmole/l dialyzed, 32° C. Type of experiment: cell-based, rabbit. The method, then:
FIG. 7. CaM kinase inhibition suppresses pacing induced inward current. Isolated heart cells were paced (0.5 Hz, T=32° C.) using a prolonged action potential voltage clamp command wave form. (A) A prolonged action potential was digitized and used as a voltage clamp command waveform for current tracings below. Command membrane potential is on the ordinate and time (for panels A-C) is on the abscissa (B) Inward currents developed after completion of the command wave form in 5/6 cells dialyzed with a control peptide (SEQ ID NO: 2, 20 μmole/l) devoid of CaM kinase inhibitory activity. Cell membrane currents are referenced on the ordinate for both panels B and C.
Isolated heart cells (Experimental Methods, Example 6) were stimulated (0.5 Hz) in voltage clamp using a prolonged action potential wave form (FIG. 7A). Rapid pacing favors intracellular calcium overload. Inward currents that develop in response to rapid pacing are a marker for intracellular calcium overload and they are the basis for arrhythmogenic delayed afterdepolarizations (DADs).
Isolated cells were studied with the action potential command wave form using voltage clamp methodology (Experimental Methods, Example 6). Cells were stimulated at 0.5 Hz and 32° C. (heated stage from Warner Instruments) for up to 100 beats. Recording solutions were identical to those for action potential recording except that the calcium buffer EGTA was omitted from the intracellular solution to favor intracellular calcium overload. The presence or absence of the post-repolarization inward current was noted.

The subject of experiment [2] is L-type calcium window current. Briefly: L-type calcium window current with an EAD-containing action potential voltage clamp wave form. The note with it: dialysis with peptide; data not shown. Type of experiment: cell-based, rabbit.
A further experiment concerns isolated rabbit hearts. The experiment can be described thus: Clofilium-induced early afterdepolarizations (EADs) in isolated perfused rabbit hearts. From the text: FIG. 1. […] Data tracings show (from top to bottom) monophasic action potentials (MAP) and left ventricular (LV) pressure. The horizontal lines to the left of the LV pressure tracings (top to bottom) indicate 100 mm Hg and 0 mm Hg levels and 850 ms for panels A and B. All experiments with isolated hearts consisted of 3 periods. A fourth period (experimental period 4) was only added in hearts with EADs. Experimental periods are labeled 1-4 (top of page for both panels A and B). Experimental period 1 measurements represent control and follow >10 min of stabilization. […] Period 3 measurements follow addition of clofilium (7.5 μmole/l) and are taken at EAD initiation or from the longest action potential duration recorded over 30 min. Multiple EADs are seen as 2 oscillations during repolarization on the MAP tracings in experimental period 3. Secondary elevations in LV pressure coinciding with EADs are also seen in the LV pressure tracing in experimental period 3. Experimental period 4 measurements follow EAD termination by addition of nifedipine (10 μmole/l) (shown above) or Cd^2+ (200-500 μmole/l) (data not shown). The horizontal bars indicate the experimental conditions for both panels A and B. (B) Experimental design for isolated rabbit hearts treated with CaM kinase inhibitor KN-93. Arrangement of data tracings is the same as in FIG. 1A (above). Experimental periods are also the same as in FIG. 1A (above) except the active CaM kinase inhibitor KN-93 (0.5 μmole/l) was added 10 min prior to period 2 measurements. […] (C) Continuous record of EAD termination by nifedipine (10 μM) in a heart paced at a cycle length of 1500 ms. Data tracings show MAP with single EADs (top) and LV pressure (bottom). The horizontal lines to the left of the LV pressure tracings indicate 50 mm Hg and 0 mm Hg pressure levels (top to bottom). EAD termination occurs prior to the first discernible decrease (i.e. >10% below baseline) in LV pressure. The vertical arrow marks the first beat of EAD termination.
New Zealand White rabbits of either gender (2.7-3.2 kg) were treated with a heparin bolus (150 U/kg IV) and killed by pentobarbital (50 mg/kg IV) overdose. Hearts were rapidly excised and placed in ice-cold Tyrode's solution for dissection of extracardiac tissue. (Tyrode's solution was composed of (mmol/l) NaCl (130.0), NaHCO3 (20.0), glucose (5.6), KCl (3.0), CaCl2 (2.0), NaH2PO4 (1.8), MgCl24H2O(0.7).) The aorta was cannulated, and perfused retrograde with Tyrode's solution. The perfusate (200 ml) was recirculated through a warming bath and filling pressure was adjusted to 20 cm of H2O. Recirculation time was ˜1 min, based on the time to decrease in left ventricular (LV) pressure following addition of ICa blockers to the recirculating perfusate. Temperature was monitored using a thermistor probe positioned in the right ventricle (RV) and maintained at 33±1° C. by a closed loop feed back system. The perfusate was vigorously bubbled with 95% O2, 5% CO2 and pH was monitored throughout the experiments and adjusted to 7.4 with LN NaOH or HCl, as appropriate. Both atria were removed and drains were placed in the RV and LV apices. An electrocardiogram (ecg) lead was sutured to the LV apex and the proximal pulmonary artery. Epicardial pacing wires were inserted into the RV free wall. Bradycardia was produced by crushing the AV node with a forceps. Epicardial pacing maintained a minimum cycle length of 1500 ms (heart rate of 40 beats/min). Pacing output was adjusted to twice diastolic threshold. In most experiments LV pressure was continuously monitored with a solid state transducer (Camino Laboratories) placed in a saline filled latex balloon. The balloon was secured with a purse string suture around the left atrial remnant and pressure was adjusted to maximize the LV developed pressure (LVDP) keeping the LV end diastolic pressure <10 mmHg. […]

Experiment [3] deals with CaM kinase (Oryctolagus cuniculus, UniProt O77708). Briefly: Ca2+-independent CaM kinase activity in LV tissue from isolated rabbit hearts. The note with it: clofilium 7.5 μmole/l; KN-93 pretreatment 0.5 μmol/l. As to the method: FIG. 4. Percent calcium-independent CaM kinase activity in isolated rabbit hearts. Maximal (i.e. Ca^2+/calmodulin-dependent) and Ca^2+-independent CaM kinase activities were assayed from left ventricular (LV) tissue homogenates as described in Example 5, Experimental Methods. All hearts were initially isolated under control conditions. A stabilization period of ≧10 min was used for each isolated heart to ensure the absence of EADs, as indicated by monophasic action potentials (MAPs) recorded by a catheter positioned over the LV epicardium. […]
Chain of CaM kinase (Oryctolagus cuniculus, UniProt O77708) (O77708 2-533): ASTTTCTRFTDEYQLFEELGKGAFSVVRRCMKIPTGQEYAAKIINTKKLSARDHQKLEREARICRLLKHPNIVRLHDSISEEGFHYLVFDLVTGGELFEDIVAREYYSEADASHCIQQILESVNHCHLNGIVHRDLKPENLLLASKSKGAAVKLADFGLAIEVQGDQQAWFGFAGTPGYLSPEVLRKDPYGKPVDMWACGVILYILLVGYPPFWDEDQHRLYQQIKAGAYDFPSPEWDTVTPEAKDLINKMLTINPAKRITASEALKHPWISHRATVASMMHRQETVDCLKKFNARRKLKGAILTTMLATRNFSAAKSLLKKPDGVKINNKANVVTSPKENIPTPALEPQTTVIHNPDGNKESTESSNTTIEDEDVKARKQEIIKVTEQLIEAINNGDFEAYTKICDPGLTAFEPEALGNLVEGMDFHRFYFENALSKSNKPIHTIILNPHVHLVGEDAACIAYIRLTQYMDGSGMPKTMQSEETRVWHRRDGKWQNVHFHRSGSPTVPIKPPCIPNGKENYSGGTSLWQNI
Left ventricular homogenate was prepared as follows: after removal of the heart, it was placed in nominally Ca^2+ free ice-cold HEPES-buffered Tyrode's solution. […] Protein concentration was measured by the method of Bradford, using BSA as the standard.
Assay of CaM kinase activity was performed essentially as described by Waldmann et al. with a few modifications. […] Calcium/calmodulin-dependent phosphorylation of the autocamtide 3 substrate was then quantitated as described. Calcium/calmodulin-independent CaM kinase activity was quantitated as described above, but Ca^2+ was omitted from the assay solution. […]

Experiment [4] deals with T1, L-type Ca2+ current (ICa) (Oryctolagus cuniculus, UniProt P15381).
T1 construct: endogenous in cells; host or cells: freshly isolated New Zealand White rabbit ventricular myocytes
T1 sequence (P15381 whole entry, other chains not shown): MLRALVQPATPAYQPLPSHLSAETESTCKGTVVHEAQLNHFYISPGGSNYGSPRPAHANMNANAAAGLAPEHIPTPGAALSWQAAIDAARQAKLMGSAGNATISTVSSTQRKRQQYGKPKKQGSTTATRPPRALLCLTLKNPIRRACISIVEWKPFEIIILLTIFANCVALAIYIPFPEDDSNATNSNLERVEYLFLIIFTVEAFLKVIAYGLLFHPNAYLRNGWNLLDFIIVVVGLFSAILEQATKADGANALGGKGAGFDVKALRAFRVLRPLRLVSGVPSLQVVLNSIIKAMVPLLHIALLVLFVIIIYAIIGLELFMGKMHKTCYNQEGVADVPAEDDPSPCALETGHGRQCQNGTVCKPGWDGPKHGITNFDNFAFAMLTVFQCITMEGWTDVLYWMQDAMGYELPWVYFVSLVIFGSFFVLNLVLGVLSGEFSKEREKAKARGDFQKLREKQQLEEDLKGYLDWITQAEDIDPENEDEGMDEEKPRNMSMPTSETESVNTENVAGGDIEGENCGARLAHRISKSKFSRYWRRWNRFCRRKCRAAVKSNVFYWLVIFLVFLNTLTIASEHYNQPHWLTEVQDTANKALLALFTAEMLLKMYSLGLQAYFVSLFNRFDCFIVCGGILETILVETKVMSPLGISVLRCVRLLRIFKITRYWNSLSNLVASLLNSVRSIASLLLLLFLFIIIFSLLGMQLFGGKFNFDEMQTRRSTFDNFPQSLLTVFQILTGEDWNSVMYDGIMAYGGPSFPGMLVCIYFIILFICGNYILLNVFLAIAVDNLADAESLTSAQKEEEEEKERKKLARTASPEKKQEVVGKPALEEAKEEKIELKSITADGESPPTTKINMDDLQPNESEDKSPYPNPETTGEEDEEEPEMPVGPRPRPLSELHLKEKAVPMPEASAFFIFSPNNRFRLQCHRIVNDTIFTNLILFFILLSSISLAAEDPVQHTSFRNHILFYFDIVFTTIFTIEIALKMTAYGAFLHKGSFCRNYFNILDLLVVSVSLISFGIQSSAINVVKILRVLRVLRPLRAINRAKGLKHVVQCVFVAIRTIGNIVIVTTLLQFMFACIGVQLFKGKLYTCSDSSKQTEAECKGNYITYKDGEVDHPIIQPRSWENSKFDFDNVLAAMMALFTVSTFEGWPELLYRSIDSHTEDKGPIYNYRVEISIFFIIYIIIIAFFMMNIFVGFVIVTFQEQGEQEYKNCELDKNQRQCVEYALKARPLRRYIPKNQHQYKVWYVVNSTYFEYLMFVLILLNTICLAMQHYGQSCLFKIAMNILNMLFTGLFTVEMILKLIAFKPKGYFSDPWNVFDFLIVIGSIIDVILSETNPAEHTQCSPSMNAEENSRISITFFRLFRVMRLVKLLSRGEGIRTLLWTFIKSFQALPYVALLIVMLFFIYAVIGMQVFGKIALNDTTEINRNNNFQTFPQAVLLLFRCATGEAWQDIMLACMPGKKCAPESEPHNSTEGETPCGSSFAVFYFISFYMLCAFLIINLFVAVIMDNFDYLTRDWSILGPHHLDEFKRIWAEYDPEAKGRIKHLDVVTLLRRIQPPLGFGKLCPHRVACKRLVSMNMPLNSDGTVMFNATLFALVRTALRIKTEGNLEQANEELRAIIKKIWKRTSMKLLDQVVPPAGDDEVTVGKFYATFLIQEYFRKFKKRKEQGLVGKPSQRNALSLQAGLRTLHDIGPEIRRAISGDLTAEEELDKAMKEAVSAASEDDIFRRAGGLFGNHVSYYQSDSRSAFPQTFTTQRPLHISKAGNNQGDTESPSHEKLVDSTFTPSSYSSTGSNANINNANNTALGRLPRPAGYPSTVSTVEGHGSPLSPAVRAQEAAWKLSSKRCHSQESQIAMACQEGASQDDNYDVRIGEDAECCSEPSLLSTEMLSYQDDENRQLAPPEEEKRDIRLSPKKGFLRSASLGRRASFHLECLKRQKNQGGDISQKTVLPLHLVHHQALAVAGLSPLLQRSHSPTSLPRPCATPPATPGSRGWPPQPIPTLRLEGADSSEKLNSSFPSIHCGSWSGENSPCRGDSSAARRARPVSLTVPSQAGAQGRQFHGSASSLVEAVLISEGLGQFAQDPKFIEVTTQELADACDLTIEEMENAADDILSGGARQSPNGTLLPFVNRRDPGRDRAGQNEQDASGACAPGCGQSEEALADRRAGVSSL
T1 sequence (P13806 27-960 partner limits assumed, other chains not shown): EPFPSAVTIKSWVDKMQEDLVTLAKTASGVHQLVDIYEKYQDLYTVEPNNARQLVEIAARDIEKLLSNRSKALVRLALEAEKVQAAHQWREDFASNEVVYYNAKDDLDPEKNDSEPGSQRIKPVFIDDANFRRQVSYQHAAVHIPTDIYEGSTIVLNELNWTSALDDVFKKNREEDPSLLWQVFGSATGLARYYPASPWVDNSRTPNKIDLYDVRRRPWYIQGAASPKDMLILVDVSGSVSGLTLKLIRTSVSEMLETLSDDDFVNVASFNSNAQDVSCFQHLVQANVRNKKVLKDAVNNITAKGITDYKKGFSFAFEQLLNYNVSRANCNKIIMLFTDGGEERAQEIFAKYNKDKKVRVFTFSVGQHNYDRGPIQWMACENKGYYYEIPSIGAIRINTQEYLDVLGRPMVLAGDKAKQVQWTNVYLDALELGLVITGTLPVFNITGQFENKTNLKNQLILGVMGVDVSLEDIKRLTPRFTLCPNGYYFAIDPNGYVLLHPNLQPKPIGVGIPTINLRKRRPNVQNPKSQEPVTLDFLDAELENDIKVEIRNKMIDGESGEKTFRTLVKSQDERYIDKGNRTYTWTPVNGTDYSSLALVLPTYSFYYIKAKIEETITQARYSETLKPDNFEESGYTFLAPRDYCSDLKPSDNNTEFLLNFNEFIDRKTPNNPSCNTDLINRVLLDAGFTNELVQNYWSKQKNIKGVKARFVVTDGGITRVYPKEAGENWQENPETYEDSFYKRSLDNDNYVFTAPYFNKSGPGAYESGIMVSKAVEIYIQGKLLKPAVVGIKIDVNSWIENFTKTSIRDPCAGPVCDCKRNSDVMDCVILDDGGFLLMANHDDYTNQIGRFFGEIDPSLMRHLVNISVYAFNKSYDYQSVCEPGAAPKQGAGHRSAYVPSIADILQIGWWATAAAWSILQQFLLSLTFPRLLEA
T1 sequence (P13806 961-1106 partner limits assumed, other chains not shown): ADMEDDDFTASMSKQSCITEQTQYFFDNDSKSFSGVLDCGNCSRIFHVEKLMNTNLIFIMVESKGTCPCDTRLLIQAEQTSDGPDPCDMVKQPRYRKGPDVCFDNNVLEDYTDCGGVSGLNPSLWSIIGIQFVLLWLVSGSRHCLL
Briefly: Whole cell voltage clamp of L-type Ca2+ current in single ventricular myocytes. Type of experiment: cell-based, rabbit.

Experiment [5] concerns the target CaM kinase. The note with it: read-out: reported Ki, competitive inhibition of calmodulin binding to CaM kinase; cited from earlier work.
[6] abbreviates: pretreatment 0.5 μmol/l, clofilium 7.5 μM.

Turning to KKALHRQEAVDCL [SEQ ID NO: 1], in experiment [1], the “kind of EADs seen” value is on record as “only single EADs” and the “EADs induced (cells with EADs/cells)” value was 4/15. Moreover, the IC50 on protein kinase C (PKC) is no less than 500 µM. Further, on protein kinase A (PKA), the half-maximal inhibitory concentration (IC50) is no less than 500 µM. Further, in the experiment with isolated heart cells, the “cells that developed inward currents” value is on record as 0/5. The “effect on L-type calcium window current” value in [2] is listed as “an increase in the current was prevented”.

Take `COc1ccc(S(=O)(=O)N(CCO)c2ccccc2CN(C)CC=Cc2ccc(Cl)cc2)cc1` [KN-93, 2-[N-(2-hydroxyethyl)-N-(4-methoxy-benzenesulfonyl)]-amino-N-(4-chlorocinnamyl)-N-methylbenzylamine]: the “MAP duration prolongation by clofilium” value in the experiment on isolated rabbit hearts (pretreatment 0.5 μmol/l) is “without reducing MAP duration prolongation”. Moreover, in the experiment on isolated rabbit hearts (setting [6]), the “EADs in response to clofilium (hearts with EADs/hearts)” value is 4/10 and the “multiple EADs (hearts with multiple EADs/hearts)” value was 1/10. The “left ventricular developed pressure (LVDP) following clofilium” value with isolated rabbit hearts (pretreatment 0.5 μmol/l, clofilium 7.5 μmole/l) is “completely prevented the increase in LVDP”. For the same molecule, the “Ca2+-independent CaM kinase activity compared to control” value at CaM kinase [3] is “No significant increase”. The “effects on protein kinase C (PKC)” value in the experiment on protein kinase C (PKC) is on record as “neither KN-93 nor KN-92 have appreciable effects”. Further, the “apparent voltage dependence of ICa activation” value in experiment [4] is reported as “Neither KN-92 or KN-93 shifted”. The “steady state inhibition of peak ICa” value in experiment [4] (0.5 μmol/l external application, cells dialyzed with BAPTA) was determined as 36.2±4.3%. Besides, the “peak steady state ICa inhibition relative to KN-92” value in [4] (1.0 μmol/l) is given as “more effective ICa inhibitor”. Also, the Ki at CaM kinase [5] is 370 nM. Besides, the “effects on protein kinase A (PKA)” value in the experiment on protein kinase A (PKA) is on record as “neither KN-93 nor KN-92 have appreciable effects”.

With Ryanodine, the “cells in which development of pacing induced inward currents was prevented” value with isolated heart cells (10 μmole/l) is 2/2.

As to `CCCCCCC[N+](CC)(CC)CCCCc1ccc(Cl)cc1` [clofilium], in the experiment on isolated rabbit hearts (clofilium 7.5 μM, no pretreatment), the “EAD induction by clofilium in hearts without any pretreatment” value is given as 8/8. For the same molecule, the “Ca2+-independent CaM kinase activity compared to control” value at CaM kinase [3] is “increased significantly”.

As for KKALHAQERVDCL [SEQ ID NO: 2], in experiment [1], the “kind of EADs seen” value is “complex and repetitive”; the “EADs induced (cells with EADs/cells)” value is given as 11/15. The “cells that developed inward currents” value with isolated heart cells is listed as 5/6. The “effect on L-type calcium window current” value in experiment [2] is listed as “no significant effect”.

Broadly, the IC50 is the midpoint of a concentration-inhibition curve. Broadly, the Ki is the equilibrium dissociation constant of an inhibitor or competing ligand from its target.
